Patent US20100029643A1 (ASTRAZENECA AB, priority 2006, published 2010)

biological target: T1, Edg-1/S1P1 receptor (Homo sapiens, UniProt P21453); assay: In vitro cell based receptor activation assay - Transfluor assay (assay I or II; beta-arrestin GFP relocalization after S1P stimulation); conditions: at 3.50 μM (titrated from top concentration 10 μM)
T1 construct: expressed in transfected cells; host or cells: human osteogenic sarcoma U2OS cells: Edg-1 Transfluor U2OS WT Clone #37 (assay I), Edg-1 Transfluor U2OS Clone #3 (assay II)
T1 sequence (P21453 whole entry): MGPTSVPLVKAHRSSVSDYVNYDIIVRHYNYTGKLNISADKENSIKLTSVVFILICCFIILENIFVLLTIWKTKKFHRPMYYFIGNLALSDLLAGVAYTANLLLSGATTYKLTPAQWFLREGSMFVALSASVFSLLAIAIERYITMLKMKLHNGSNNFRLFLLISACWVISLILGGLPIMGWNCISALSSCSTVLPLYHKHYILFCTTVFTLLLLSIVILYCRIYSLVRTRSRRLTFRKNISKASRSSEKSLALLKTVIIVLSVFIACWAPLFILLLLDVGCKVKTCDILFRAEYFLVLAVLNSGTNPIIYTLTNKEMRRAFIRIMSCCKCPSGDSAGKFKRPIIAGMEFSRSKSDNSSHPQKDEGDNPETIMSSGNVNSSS
Description: The following assays can be used to measure the effects of the compounds of the present invention as S1P1/Edg1 inhibitors.
I. In Vitro Cell Based Receptor Activation Assay-Transfluor Assay
(§1) This cell-based assay was designed to assess the ability of small molecule antagonists to inhibit activation of the GPCR S1P1 in the presence of its cognate ligand S1P. The assay used technology initially developed by Norak Biosciences (Xsira Pharmaceutical) and presently owned by Molecular Devices. A human osteogenic sarcoma (U2OS) cell line overexpressing the Edg-1/S1P1) receptor as well as a beta-arrestin/green fluorescent protein (GFP) construct hereafter termed Edg-1 Transfluor U2OS WT Clone #37 was employed.
Using a high content screening approach (Cellomics Arrayscan), receptor activity was measured by assessment of the relocalization of beta-arrestin GFP in response to stimulation of Edg-1 by SIP. Specifically, Edg-1 Transfluor U2OS WT Clone #37 cells were plated at a density of 6250 cells in 40 μL medium per well in 384 well plastic bottomed microtiter plates (BD Falcon) and incubated overnight at 37° C./5% CO2. Prior to screening, compounds were dissolved in 100% dimethyl sulfoxide (DMSO) to a final stock concentration of 10 mM. Compounds were then serially diluted at 30× final concentration in Edg-1 Transfluor cell growth medium containing […] using the Tecan Genesis instrument. These 30× plates were then diluted to 6× final concentration with Edg-1 Transfluor growth medium just prior to dosing. Cells were then dosed with 10 μL per well of 6× compound dilutions or 6% DMSO and pre-incubated for 15 minutes at room temperature. Cell plates were dosed with 10 μL per well 6× S1P Edg-1 Transfluor growth medium, then incubated for 45 minutes at 37° C./5% CO2. Final concentration in the well of DMSO was 1%, compound was IX (3-fold, 9 point IC50 dilutions starting at 100 μM final concentration), and either 375 nM or […] SIP ligand. Cell plates were then fixed by adding 50 μL per well of 5% formaldehyde in 1× Dulbecco's phosphate buffered saline (DPBS) directly and incubating for 30 minutes at room temperature in darkness. Fixative was removed and replaced with 50 μL per well of 1×DPBS, after which cells were stained with 10 μg/mL final concentration of Hoechst 33342 (Molecular Probes) for 15 minutes at room temperature in darkness. Stain was then removed from the plates and replaced with 50 μL per well of 1×DPBS using the BioTek ExL405 plate washer. Plates were then sealed and analysed on the Cellomics Arrayscan using the GPCR signalling algorithm. EC50 values were then calculated using IDBS ActivityBase software.
II. In Vitro Cell Based Receptor Activation Assay-Transfluor Assay
as §1, with “Devices (MDS Analytical Technologies).” for “Devices.”, “U2OS” for “U2OS WT”, “#3” for “#37”
Using a high content screening approach (Molecular Devices Image Express), receptor activity was measured by assessment of the relocalization of beta-aiTestin GFP in response to stimulation of Edg-1 by S1P. Specifically, Edg-1 Transfluor U2OS Clone #3 cells were plated at a density of 6250 cells in 44 μL medium per well in 384 well plastic bottomed microtiter plates (BD Falcon) and incubated overnight at 37° C./5% CO2. Prior to screening, compounds were dissolved in 100% dimethyl sulfoxide (DMSO) to a final stock concentration of 10 mM. Compounds were then serially diluted at 10× final concentration in Edg-1 Transfluor cell growth medium containing 6% DMSO using the BioMek instrument. […]

Compared with CCn1c([C@@H](C)NS(=O)(=O)c2ccc(C(N)=O)n2C)nc2ccc(C(F)(F)F)cc21 [Example 158, (R)-5-(N-(1-(1-Ethyl-6-(trifluoromethyl)-1H-benzo[d]imidazol-2-yl)ethyl)sulfamoyl)-1-methyl-1H-pyrrole-2-carboxamide], CCn1c([C@@H](C)NS(=O)(=O)c2ccc(OC)nc2)nc2ccc(C(F)(F)F)cc21 [Example 109, (R)-N-(1-(1-Ethyl-6-(trifluoromethyl)-1H-benzo[d]imidazol-2-yl)ethyl)-6-methoxypyridine-3-sulfonamide] is higher in inhibition at 3.5 µM: 93.6% for the first, 95.6% for the second.

Compared with CCn1c(C(C)NS(=O)(=O)c2cnc(N)c(Cl)c2)nc2ccc(C(F)(F)F)cc21 (stereo not shown) [Example 169, 6-amino-5-chloro-N-(1-(1-ethyl-6-(trifluoromethyl)-1H-benzo[d]imidazol-2-yl)ethyl)pyridine-3-sulfonamide], C#Cc1ccc(S(=O)(=O)N[C@H](C)c2nc3ccc(C(F)(F)F)cc3n2CC)cn1 [Example 133, (R)-N-(1-(1-Ethyl-6-(trifluoromethyl)-1H-benzo[d]imidazol-2-yl)ethyl)-6-ethynylpyridine-3-sulfonamide] is lower in inhibition at 3.5 µM: 87.1% for the first, 86.4% for the second.

First: CCn1c(C(C)(C)NS(=O)(=O)c2ccc(C#N)cc2)nc2ccc(C(F)(F)F)cc21 [Example 138, 4-Cyano-N-[1-(1-ethyl-6-trifluoromethyl-1H-benzoimidazol-2-yl)-1-methyl-ethyl]-benzenesulfonamide]
Second: CCn1c([C@@H](C)NS(=O)(=O)c2ccc(OC)cc2)nc2ccc(C(F)(F)F)cc21 [Example 122, N-{(1R)-1-[1-Ethyl-6-(trifluoromethyl)-1H-benzimidazol-2-yl]ethyl}-4-methoxybenzenesulfonamide]
The inhibition at 3.5 µM of the first is lower: 78.4% for the first, 91.4% for the second.

First: CCn1c([C@@H](C)NS(=O)(=O)c2ccc(C#N)nc2)nc2ncc(C(F)(F)F)cc21 [Example 181, 6-Cyano-N-{(1R)-1-[1-ethyl-6-(trifluoromethyl)-1H-imidazo[4,5-b]pyridin-2-yl]ethyl}pyridine-3-sulfonamide]
Second: CCn1c([C@@H](C)NS(=O)(=O)c2ccc(Cl)cc2)nc2cnccc21 [Example 102, 4-Chloro-N-[(1R)-1-(1-ethyl-1H-imidazo[4,5-c]pyridin-2-yl)ethyl]benzenesulfonamide]
The inhibition at 3.5 µM of the first is lower: 90.6% for the first, 93.8% for the second.

same assay, conditions: at 3.70 μM (titrated from top concentration 100 μM)

Compared with CCn1c(C(Cc2ccc(F)cc2)NS(=O)(=O)c2ccc(Cl)cc2)nc2ccccc21 (stereo not shown) [Example 6], CCn1c(C(Cc2ccccc2)NS(=O)(=O)c2ccc(Cl)cc2)nc2ccccc21 (stereo not shown) [Example 5, 4-Chloro-N-[1-(1-ethyl-1H-benzimidazol-2-yl)-2-phenyl-ethyl]benzenesulfonamide] is lower in inhibition at 3.7 µM: 77.7% for the first, 73.2% for the second.

Going from CCn1c([C@@H](C)NS(=O)(=O)c2ccc(Cl)cc2)nc2ccc(CN3CCOCC3)cc21 [Example 75, 4-Chloro-N-{(1R)-1-[1-ethyl-6-(morpholin-4-ylmethyl)-1H-benzimidazol-2-yl]ethyl}benzenesulfonamide] to CCn1c([C@@H](C)NS(=O)(=O)c2ccc(Cl)cc2)nc2cc(C3CC3)ccc21 [Example 84, 4-Chloro-N-[(1R)-1-(5-cyclopropyl-1-ethyl-1H-benzimidazol-2-yl)ethyl]benzenesulfonamide], the inhibition at 3.7 µM rises from 37.2% to 59.3%.

Compared with CC(NS(=O)(=O)c1ccc(Cl)cc1)c1nc2ccccc2n1C1CC1 (stereo not shown) [Example 21, 4-Chloro-N-[1-(1-cyclopropyl-1H-benzimidazol-2-yl)ethyl]benzenesulfonamide], CC(NS(=O)(=O)c1ccc(Cl)cc1)c1nc2ccccc2n1C (stereo not shown) [Example 8, 4-Chloro-N-[1-(1-methyl-1H-benzimidazol-2-yl)ethyl]-benzenesulfonamide] is higher in inhibition at 3.7 µM: 39% for the first, 91.2% for the second.

For CCn1c([C@@H](C)NS(=O)(=O)c2ccc3nsnc3c2)nc2ccc(C(F)(F)F)cc21 [Example 46, N-{(1R)-1-[1-Ethyl-6-(trifluoromethyl)-1H-benzimidazol-2-yl]ethyl}-2,1,3-benzothiadiazole-5-sulfonamide], the inhibition at 3.7 µM was 89.8%.

same assay, conditions: one or the other of the two Transfluor assays; Edg-1 Transfluor U2OS cells, S1P ligand

CC(NS(=O)(=O)c1ccc(Cl)cc1)c1nc2ccccc2n1C1CC1 (stereo not shown) [Example 21, 4-Chloro-N-[1-(1-cyclopropyl-1H-benzimidazol-2-yl)ethyl]benzenesulfonamide] was tested, and the EC50 was 5.15 µM.
